Assay results taken from PubChem BioAssay (NCI).
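Results reflect a 48-hour exposure of cells in 96-well plates to compound at five concentrations. Here, GI50 denotes the concentration required for 50% inhibition of growth. TGI: concentration producing complete growth inhibition.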

Columns and labels:
Assay in all cases: NCI-60 cell line screen, 48 h
[1] = test system: HCT-116 colon
[2] = test system: SF-268 CNS
[3] = test system: DU-145 prostate
[4] = test system: UACC-62 melanoma
[5] = test system: SF-539 CNS
[6] = test system: MOLT-4 leukemia
[7] = test system: KM12 colon
[8] = test system: SF-295 CNS
[9] = test system: MALME-3M melanoma
[10] = test system: OVCAR-4 ovarian
[11] = test system: NCI-H226 lung
[12] = test system: SK-MEL-28 melanoma
[13] = test system: HL-60(TB) leukemia
[14] = test system: HOP-62 NSCLC
[15] = test system: IGROV1 ovarian
[16] = test system: NCI-H23 lung
[17] = test system: SNB-19 CNS
[18] = test system: TK-10 renal
[19] = test system: SK-OV-3 ovarian
[20] = test system: SN12C renal
[21] = test system: NCI-H460 lung
[22] = test system: CAKI-1 renal
[23] = test system: 786-0 renal
[24] = test system: CCRF-CEM leukemia
[25] = test system: RXF 393 renal
[26] = test system: HOP-92 NSCLC
[27] = test system: SK-MEL-2 melanoma
[28] = test system: SNB-75 CNS
[29] = test system: T-47D breast
[30] = test system: SW-620 colon
[31] = test system: RPMI-8226 leukemia
[32] = test system: HCC-2998 colon
[33] = test system: UO-31 renal
[34] = test system: LOX IMVI melanoma
[35] = test system: EKVX NSCLC
[36] = test system: OVCAR-8 ovarian
[37] = test system: MCF7 breast
[38] = test system: NCI/ADR-RES ovarian
[39] = test system: SR leukemia
[40] = test system: U251 CNS
[41] = test system: UACC-257 melanoma
[42] = test system: HCT-15 colon
[43] = test system: ACHN renal
[44] = test system: BT-549 breast
[45] = test system: MDA-MB-231 breast
[46] = test system: MDA-MB-435
[47] = test system: HS 578T breast
[48] = test system: OVCAR-3 ovarian
[49] = test system: SK-MEL-5 melanoma
[50] = test system: A549 NSCLC
[51] = test system: HT29 colon
[52] = test system: M14 melanoma
[53] = test system: COLO 205 colon
[54] = test system: OVCAR-5 ovarian
[55] = test system: PC-3 prostate
[56] = test system: NCI-H522 lung
[57] = test system: K-562 leukemia
[58] = test system: A498 renal

## Nc1nn2cc(F)cnc2c1C(=O)Nc1cncc(F)c1N1CCC(C(=O)N2CCN(C3COC3)CC2)CC1
[1]
  GI50: 942 nM
  TGI: > 29600 nM
[2]
  GI50: 1330 nM
  TGI: > 100000 nM
[3]
  GI50: 469 nM
  TGI: > 100000 nM
[4]
  GI50: 522 nM
  TGI: 2560 nM
[5]
  GI50: 164 nM
  TGI: 571 nM
[6]
  GI50: 71.2 nM
  TGI: 762 nM
[7]
  GI50: 369 nM
  TGI: > 100000 nM
[8]
  GI50: 238 nM
  TGI: 1860 nM
[9]
  GI50: 608 nM
  TGI: 12000 nM
[10]
  GI50: 326 nM
  TGI: 7860 nM
[11]
  GI50: 1170 nM
  TGI: 4450 nM
[12]
  GI50: 2950 nM
  TGI: > 100000 nM
[13]
  GI50: 129 nM
  TGI: 465 nM
[14]
  GI50: 676 nM
  TGI: 3980 nM
[15]
  GI50: 464 nM
  TGI: 3040 nM
[16]
  GI50: 60.6 nM
  TGI: 498 nM
[17]
  GI50: 910 nM
  TGI: 7680 nM
[18]
  GI50: 888 nM
  TGI: > 69900 nM
[19]
  GI50: 243 nM
  TGI: 6020 nM
[20]
  GI50: 987 nM
  TGI: 6170 nM
[21]
  GI50: 254 nM
  TGI: 7200 nM
[22]
  GI50: 235 nM
  TGI: 3160 nM
[23]
  GI50: 277 nM
  TGI: > 100000 nM
[24]
  GI50: 33.2 nM
[25]
  GI50: 110 nM
  TGI: 778 nM
[26]
  GI50: 653 nM
  TGI: 13000 nM
[27]
  GI50: 194 nM
  TGI: 821 nM
[28]
  GI50: 168 nM
  TGI: 1500 nM
[29]
  GI50: 2040 nM
  TGI: > 100000 nM
[30]
  GI50: 1510 nM
  TGI: > 100000 nM
[31]
  GI50: 1200 nM
[32]
  GI50: 46.4 nM
  TGI: > 100000 nM
[33]
  GI50: 284 nM
  TGI: 2620 nM
[34]
  GI50: 285 nM
  TGI: 1550 nM
[35]
  GI50: 512 nM
  TGI: > 100000 nM
[36]
  GI50: 548 nM
  TGI: 6130 nM
[37]
  GI50: 60.8 nM
  TGI: > 100000 nM
[38]
  GI50: 749 nM
  TGI: > 48500 nM
[39]
  GI50: 61.9 nM
  TGI: 894 nM
[40]
  GI50: 656 nM
  TGI: > 100000 nM
[41]
  GI50: 1320 nM
  TGI: > 76400 nM
[42]
  GI50: 165 nM
  TGI: 4130 nM
[43]
  GI50: 250 nM
[44]
  GI50: 246 nM
  TGI: 1550 nM
[45]
  GI50: 1930 nM
  TGI: 6370 nM
[46]
  GI50: 266 nM
  TGI: 2540 nM
[47]
  GI50: 191 nM
  TGI: 1480 nM
[48]
  GI50: 854 nM
  TGI: 26000 nM
[49]
  GI50: 428 nM
  TGI: 1770 nM
[50]
  GI50: 266 nM
  TGI: > 100000 nM
[51]
  GI50: 452 nM
  TGI: > 100000 nM
[52]
  GI50: 154 nM
  TGI: 5400 nM
[53]
  GI50: 575 nM
  TGI: > 100000 nM
[54]
  GI50: 616 nM
  TGI: > 100000 nM
[55]
  GI50: 2060 nM
  TGI: > 100000 nM
[56]
  GI50: 427 nM
  TGI: 3050 nM
[57]
  GI50: 281 nM
  TGI: 2740 nM
[58]
  GI50: 181 nM
  TGI: 857 nM
